# Data as given in patent US11040016B2, “Composition for alleviating, preventing or treating female menopausal symptoms, containing, as active ingredient, pinitol, D-chiro-inositol or analog compounds thereof” (DY NATURAL CO., LTD, priority 2016, dated 2021).
# Assays:
# [1] = tested on: 17β-estradiol; experiment: 17β-estradiol level in the blood of white rats after 8 weeks oral administration (ELISA); type: in vivo, Sprague-Dawley (SD) white rats; conditions: female SD rats, 10, 20, 40 mg/kg oral once a day for 8 weeks, vs physiological saline
# Procedure: Pinitol and D-chiro-inositol were purchased from Biosearch Life (Camino de Purchil, 66. 18004 Granada, Spain). Six-month-old female Sprague-Dawley (SD) white rats (Orient, Korea) were divided into a test group administered with pinitol or D-chiro-inositol and a control group administered with physiological saline while ten animals were used in the test for each of the groups. The rats were bred in a breeding room controlled under a temperature of 22±1° C., humidity of 55±1%, and 12-hour light/dark cycle. The rats were given free access to food and water, and for 7 days after entrance, the rats were acclimated for the breeding environment, and then were used for tests. Physiological saline and pinitol or D-chiro-inositol were orally administered at various doses (10 mg/kg, 20 mg/kg, or 40 mg/kg) at the same amount once a day for 8 weeks. […] The levels of hormones and proteins in the blood were measured according to the manufacturer's manual by using the ELISA kit (Enzo Life Sciences, U.S.A.) for measurement of 17β-estradiol or sex-hormone binding globulin (SHBG) in the blood. […] After the completion of the last administration, the 17β-estradiol and sex-hormone binding globulin (SHBG) levels in the blood were measured by ELISA kit. […]
# [2] = tested on: sex-hormone binding globulin (SHBG); experiment: SHBG level in the blood of white rats after 8 weeks oral administration (ELISA); type: in vivo, Sprague-Dawley (SD) white rats; conditions: female SD rats
# Procedure: Pinitol and D-chiro-inositol were purchased from Biosearch Life (Camino de Purchil, 66. 18004 Granada, Spain). Six-month-old female Sprague-Dawley (SD) white rats (Orient, Korea) were divided into a test group administered with pinitol or D-chiro-inositol and a control group administered with physiological saline while ten animals were used in the test for each of the groups. The rats were bred in a breeding room controlled under a temperature of 22±1° C., humidity of 55±1%, and 12-hour light/dark cycle. The rats were given free access to food and water, and for 7 days after entrance, the rats were acclimated for the breeding environment, and then were used for tests. Physiological saline and pinitol or D-chiro-inositol were orally administered at various doses (10 mg/kg, 20 mg/kg, or 40 mg/kg) at the same amount once a day for 8 weeks. After the last oral administration, the rats were fasted overnight and then anesthetized with ether, and the abdomen was cut open, and then blood was collected from the abdominal vein. The collected blood was transferred to a heparinized tube, followed by centrifugation at 2.500 rpm for 15 minutes for 4° C., thereby separating serum and plasma. The separated blood was stored at −80° C. until the next test. The levels of hormones and proteins in the blood were measured according to the manufacturer's manual by using the ELISA kit (Enzo Life Sciences, U.S.A.) for measurement of 17β-estradiol or sex-hormone binding globulin (SHBG) in the blood. In order to analyze the effects of pinitol or D-chiro-inositol (DCI) on the levels or activity of female hormones, which are blood indexes associated with menopausal symptoms, in female mature Sprague-Dawley (SD) white rats, a test was conducted. The physiological saline for the control group or pinitol or D-chiro-inositol (10 mg/kg, 20 mg/kg, and 40 mg/kg) for the test groups were orally administered at the predetermined time once a day for 8 weeks. After the completion of the last administration, the 17β-estradiol and sex-hormone binding globulin (SHBG) levels in the blood were measured by ELISA kit. […] Therefore, it could be confirmed that the SHBG level in the blood was decreased by pinitol or D-chiro-inositol, leading to increases in activity of female hormones. According to the test results, it was confirmed that both pinitol and D-chiro-inositol can alleviate female menopause symptoms by increasing the 17β-estradiol levels in the blood and decreasing the SHBG levels in the blood.
# [3] = tested on: middle-aged women; experiment: Menopause Rating Scale (MRS) survey in middle-aged women; type: in vivo; conditions: for alleviation rate of menopausal symptoms: MRS vs placebo; for MRS score post-taking compared with placebo taking group and pre-taking: middle-aged women, 600, 1,200, 2,400 mg once a day for 8 weeks
# Procedure: Forty middle-aged women aged 40 or more were divided into four groups each having ten women, and the four groups were designated as a control group taking a placebo and three test groups taking pinitol. Similarly, forty middle-aged women aged 40 or more were divided into four groups each having ten women, and the four groups were designated as a control group taking a placebo and three test groups taking D-chiro-inositol. Thereafter, the placebo, pinitol, or D-chiro-inositol was administered at various concentrations for 8 weeks in a double-blind fashion. The pinitol, D-chiro-inositol, or placebo was administered at 600 mg, 1,200 mg, and 2,400 mg a day. The blood was taken from the arm vein at the same time, 2:00 pm, before intake and after the last intake, and then transferred to heparinized tubes, followed by centrifugation at 2,500 rpm (4° C.) for 15 minutes, and therefore, the plasma was separated by transfer to new tubes. The separated plasma was used to measure sex hormone levels in the blood. Since subjective symptoms account for a large proportion of menopausal symptoms, several measures are used to assess the degrees of menopausal clinical symptoms. For assessment of menopausal clinical symptoms, Kupperman's index has been used for a long time. However, questions of vaginal dryness, reduction of sexual desire, and the like, are missing in the Kupperman's index, and therefore, the Menopause Rating Scale (MRS) and the Menopause-Specific Quality of Life Questionnaire (MENQOL), which are questionnaires supplementing such questions, are being widely used in current clinical trials. The MRS has been globally recognized to have reliability and feasibility due to its advantages of having a small number of questions, a total of 11 questions, and being simple and convenient, and thus the MRS is being recited in many studies (Table 1). In the present invention, the severity of menopausal symptoms was measured and analyzed by allowing the above middle-aged women clinical subjects to fill out the MRS questionnaire. The alleviating effects on female menopause symptoms were assessed by allowing the middle-aged women clinical subjects to fill out the Menopause Rating Scale (MRS) questionnaire pre- and post-intake of the placebo, pinitol, or D-chiro-inositol. [table] In order to assess the alleviating effects of female menopause symptoms by pinitol and D-chiro-inositol, a Korean-version Menopause Rating Scale (MRS) survey was performed. Eighty middle-aged 40 or more were divided into four groups, a placebo group and pinitol administration groups, each having ten women, and similarly, were divided into four groups, a placebo group and D-chiro-inositol administration groups, each having ten women. Thereafter, the placebo and 600 mg, 1,200 mg, and 2,400 mg of pinitol or D-chiro-inositol were administered once a day for 8 weeks in a double-blind fashion. The women were allowed to fill out the Menopause Rating Scale (MRS) questionnaire before and after taking the placebo, pinitol, or D-chiro-inositol. The scores of the MRS questionnaire were calculated as a total score. The 0-4 points indicate a good menopausal state, which is a smooth menopause state. A total of 5-8 points indicate a slight menopausal state, requiring management. A total of 9-15 points indicate a severe menopausal state, requiring precise diagnosis and treatment by specialists because of menopausal diseases. Last, a total of 16 points or more indicates an extremely severe menopausal state, thereby urgently requiring therapy through minute management and long-term plans. […] The MRS measurement results could confirm that pinitol alleviated female menopause symptoms caused by female hormone reduction, such as reduction of sexual desire, insomnia, urogenital diseases and infections, joint and muscular diseases, depression, and hypersensitiveness.
# [4] = tested on: 17β-estradiol; experiment: 17β-estradiol level in the blood of middle-aged women after 8 weeks administration (ELISA); type: in vivo; conditions: middle-aged women, 600, 1,200, 2,400 mg a day for 8 weeks
# Procedure: (§1) Forty middle-aged women aged 40 or more were divided into four groups each having ten women, and the four groups were designated as a control group taking a placebo and three test groups taking pinitol. Similarly, forty middle-aged women aged 40 or more were divided into four groups each having ten women, and the four groups were designated as a control group taking a placebo and three test groups taking D-chiro-inositol. Thereafter, the placebo, pinitol, or D-chiro-inositol was administered at various concentrations for 8 weeks in a double-blind fashion. The pinitol, D-chiro-inositol, or placebo was administered at 600 mg, 1,200 mg, and 2,400 mg a day. The blood was taken from the arm vein at the same time, 2:00 pm, before intake and after the last intake, and then transferred to heparinized tubes, followed by centrifugation at 2,500 rpm (4° C.) for 15 minutes, and therefore, the plasma was separated by transfer to new tubes. The separated plasma was used to measure sex hormone levels in the blood. The levels of hormones and proteins in the blood were measured according to the manufacturer's manual by using the ELISA kit (Enzo Life Sciences, U.S.A.) for measurement of 17β-estradiol or sex-hormone binding globulin (SHBG) in the blood. In order to analyze the effects of pinitol and D-chiro-inositol on sex hormones in middle-aged women, forty middle-aged 40 or more were divided into four groups each having ten women, and the four groups were designated as a control group taking a placebo and three test groups taking pinitol. Similarly, forty middle-aged women aged 40 or more were divided into four groups each having ten women, and the four groups were designated as a control group taking a placebo and three test groups taking D-chiro-inositol. Thereafter, the placebo, pinitol, or D-chiro-inositol was administered at various concentrations for 8 weeks in a double-blind fashion. The pinitol or D-chiro-inositol was administered at 600 mg, 1,200 mg, and 2,400 mg a day for 8 weeks. As a result of the test, there was no significant change in 17β-estradiol level in the blood in the women between pre- and pro-administration of the placebo. […] According to the test results, it could be confirmed that, similar to the results in the white rats, pinitol and D-chiro-inositol can alleviate female menopause symptoms by increasing the 17β-estradiol levels in the blood and decreasing the SHBG levels in the blood.
# [5] = tested on: sex-hormone binding globulin (SHBG); experiment: SHBG level in the blood of middle-aged women after 8 weeks administration (ELISA); type: in vivo
# Procedure: as §1, with “The pinitol, D-chiro-inositol, or placebo was administered at 600 mg, 1,200 mg, and 2,400 mg a day.” left out, “The pinitol or D-chiro-inositol was administered at 600 mg, 1,200 mg, and 2,400 mg a day for 8 weeks.” left out
# [6] = 10 mg/kg oral once a day for 8 weeks
# [7] = 20 mg/kg oral once a day for 8 weeks
# [8] = 40 mg/kg oral once a day for 8 weeks
# [9] = middle-aged women, 600 mg once a day for 8 weeks
# [10] = middle-aged women, 1,200 mg once a day for 8 weeks
# [11] = middle-aged women, 2,400 mg once a day for 8 weeks
# [12] = middle-aged women, 600 mg a day for 8 weeks
# [13] = middle-aged women, 1,200 mg a day for 8 weeks
# [14] = middle-aged women, 1,400 mg administration group, 8 weeks
structure (smiles),measurement,setting,value
O[C@H]1[C@H](O)[C@H](O)[C@@H](O)[C@H](O)[C@H]1O [D-chiro-inositol],17β-estradiol level in the blood compared with control group,[1],significantly increased in a concentration-dependent manner
same,decrease of SHBG level in the blood compared with control group,[2]; [6],about 7.0 nmol/L
same,decrease of SHBG level in the blood compared with control group,[2]; [7],~16.2 nmol/L
same,decrease of SHBG level in the blood compared with control group,[2]; [8],~21.1 nmol/L
same,decrease of average MRS score compared with placebo group,[3]; [9],5.7 points
same,alleviation rate of menopausal symptoms,[3]; [9],about 40.7%
same,decrease of average MRS score compared with placebo group,[3]; [10],9.7 points
same,alleviation rate of menopausal symptoms,[3]; [10],~69.3%
same,decrease of average MRS score compared with placebo group,[3]; [11],10.3 points
same,alleviation rate of menopausal symptoms,[3]; [11],~73.6%
same,MRS score post-taking compared with placebo taking group and pre-taking,[3],significantly decreased
same,17β-estradiol level in the blood compared with placebo administration group,[4],significantly increased in a concentration-dependent manner
same,"17β-estradiol level in the blood, pre- versus post-administration",[4],no particular difference
same,decrease of SHBG level in the blood compared with placebo administration group,[5]; [12],about 8.7 nmol/L
same,decrease of SHBG level in the blood compared with placebo administration group,[5]; [13],~15.9 nmol/L
same,decrease of SHBG level in the blood compared with placebo administration group,[5]; [14],~18.4 nmol/L
CO[C@H]1[C@H](O)[C@@H](O)[C@@H](O)[C@H](O)[C@@H]1O [pinitol],17β-estradiol level in the blood compared with control group,[1],significantly increased in a concentration-dependent manner
same,decrease of SHBG level in the blood compared with control group,[2]; [6],about 4.2 nmol/L
same,decrease of SHBG level in the blood compared with control group,[2]; [7],~10.0 nmol/L
same,decrease of SHBG level in the blood compared with control group,[2]; [8],~12.2 nmol/L
same,decrease of average MRS score compared with placebo group,[3]; [9],4.3 points
same,alleviation rate of menopausal symptoms,[3]; [9],about 32.6%
same,decrease of average MRS score compared with placebo group,[3]; [10],8.4 points
same,alleviation rate of menopausal symptoms,[3]; [10],~63.6%
same,decrease of average MRS score compared with placebo group,[3]; [11],9.1 points
same,alleviation rate of menopausal symptoms,[3]; [11],~68.9%
same,MRS score post-taking compared with placebo taking group and pre-taking,[3],significantly decreased
same,17β-estradiol level in the blood compared with placebo administration group,[4],significantly increased in a concentration-dependent manner
same,"17β-estradiol level in the blood, pre- versus post-administration",[4],no particular difference
same,decrease of SHBG level in the blood compared with placebo administration group,[5]; [12],about 8.3 nmol/L
same,decrease of SHBG level in the blood compared with placebo administration group,[5]; [13],~16.0 nmol/L
same,decrease of SHBG level in the blood compared with placebo administration group,[5]; [14],~18.6 nmol/L
same,"SHBG level in the blood, pre- versus post-administration","[5]; middle-aged women, 8 weeks",no particular difference
